Literature values, collected in patent US9358298B2, “17-hydroxyprogesterone ester containing oral compositions and related methods” (Lipocine Inc., priority 2011, dated 2016).

Legend:
[1] = given by mouth; Saxton et al. 2004, Greene NEJM

**Q.** Which results are given for `CCCCCC(=O)O[C@]1(C(C)=O)CC[C@H]2[C@@H]3CCC4=CC(=O)CC[C@]4(C)[C@H]3CC[C@@]21C` [17-hydroxyprogesterone caproate, 17-alpha-hydroxyprogesterone caproate]?
**A.** solubility in water: < 0.02 µg/mL; oral activity [1]: no oral activity
